Consider 6 compounds from patent US9481743B2, “Polyelectrolyte polymers, their manufacture and use” (priority 2013, dated 2016).

The structures appear in SMILES notation. “Also recorded” adds a separate entry of the source.

Series [1] has as its system Bacteria. Briefly: Antimicrobial efficacy of [4]Cl films (same procedure, bacterium not given). The class given is cell-based. As for the experimental part: A desired amount of 2-hydrox-2-methy-1-phenyl-propanone (5 wt %), diacrylate crosslinker (EB 130, a cyclic aliphatic diacrylate) and the acrylate-appended phosphonium salt were weighed and combined in screw top vials. The mixture was then insonated at 45° C. for 20 min until the solutions were free of particulate and haze. After cooling to room temperature, the solutions were cast on polyester films and irradiated with UV light three times. Leached films were treated with H2O (Milli-Q) in a wrist action shaker for 4 hours, followed by washing with H2O (2×10 mL) and air drying. Both leached and unleached films were subjected to the antibacterial test (below).
The antibacterial activities of the charged surfaces against Gram-negative bacteria Escherichia coli […] were studied using the antibacterial drop-test. E. coli precultured in 15 mL of nutrient broth (Difco™ BD) at 37° C. for 24 h, was washed by centrifuging at 4000 rpm for 10 min. After removing the supernatant, the cells were washed with phosphate buffered saline (PBS) twice and re-suspended and diluted to approximately 10^6 colony forming units (CFU)/mL in PBS solution. The samples were placed in sterilized Petri dishes. 100 μL of PBS solution with bacteria was added dropwise onto sterilized surfaces until completely covered. The petri dishes were sealed and placed in an incubator at 37° C. with the humidity 46%. After 4 hr, the bacteria were washed from the surface of the sample by using 10 mL PBS in the sterilized Petri dish. From this solution, 100 μL was spread onto solid plate count agar (Difco™ BD). After incubation for 24 h at 37° C., the number of surviving bacterial colonies on the Petri dishes were counted. The results after multiplication with the dilution factor were expressed as CFU per mL. The above experiments were carried out in triplicate for each sample. The percentage of killed bacteria was calculated as [(CFU of initial bacterial suspension−CFUs following surface contact)/CFU of initial bacterial suspension]×100.
As phosphonium content in the films increased, both an increase in surface charge density and bacterial activity was observed. […] The pronounced difference in films containing 25 and 30 wt % is believed to be due to differences in surface energy between EB 130 and the phosphonium salt. The non-polar nature of the crosslinking agent has lower surface energy than that of the phosphonium salt. […] Upon the addition of sufficient phosphonium salt, cations became present at the surface, as detected by the fluorescein dye experiment and exemplified by the increase in antibacterial efficacy. […] Films were prepared and analyzed following the same procedure.

Series [2] can be described thus: Density of surface phosphonium cations by UV-vis (fluorescein dye). Type of series: physicochemical. As to the method: Characterization by FTIR-ATR spectroscopy confirmed the conversion of acrylate functionality post polymerization. Percent cure was determined using a literature procedure. The intensity of the acrylate vibration at 810 cm^−1 was compared to the C═O vibration at 1750 cm^−1 both before and after irradiation. […] The density of surface phosphonium cations was determined by UV-vis spectroscopy as described in a literature procedure.
Characterization by FTIR-ATR spectroscopy confirmed the conversion of acrylate functionality post polymerization. […] The density of surface phosphonium cations was determined by UV-vis spectroscopy as described in a literature procedure^23. […] This assumes a 1:1 ratio of positive and negative charge on the surface.
Before deposition of [Au25L18]^−, the number of accessible charges on the PPF was quantified. A known protocol utilizing fluorescein dye was employed to determine the value for the above system and to relate this quantity back to the percentage of phosphonium monomers that were included in the original formulation.^23 This procedure is commonly used as a characterization technique for films containing surface-bound quaternary salts. […] At 30 wt %, a dramatic increase in the number of quaternary charges was observed (1.5×10^15 cations/cm^2). Increasing the salt content to 37.5 and 47.5 wt % yielded surfaces with 8.2×10^15 and 1.4×10^16 cations/cm^2, respectively. […] Use of low melting phosphonium salts permits formation of a formulation having low viscosity despite the high ion content, allowing for ease of handling and deposition. Use of high melting point organic salts in a similar fashion generates formulations with relatively high viscosities or significant solubility issues, which manifest themselves in poor films. Advantages of the phosphonium-based acrylate monomer in the fabrication of the charged surfaces can thus be seen.

The nature of series [3]: Water contact angle of UV-cured HDDA films containing HFPPS. Type of series: physicochemical. To be noted: UV-cured film. As to the method:
Nuclear Magnetic Resonance (NMR) spectroscopy was conducted on a Varian INOVA 400 MHz spectrometer (^1H, 400.09 MHz, ^31P{^1H} 161.82 MHz, ^19F, 376.15 MHz). All ^1H spectra were referenced relative to tetramethyl silane (CDCl3; ^1H δH=7.26 ppm and CO(CD3)2; ^1H δH=2.04). The chemical shifts for ^31P{H} NMR spectroscopy were referenced using an external standard (85% H3PO4; δP=0). The chemical shifts for ^19F{^1H} NMR spectroscopy were also referenced using an external standard (trifluorotoluene; δF=−63.9 ppm). Infrared spectra were recorded using a Bruker Tensor 27 spectrometer using attenuated total reflectance mode (ATR) using a ZnSe crystal. Sonication of the UV curable formulations was conducted in an E60H Elmasonic sonicator at frequency of 37 kHz using an effective power of 100 W. Deposition of the formulation was performed using a 25-micron Meyer Rod purchased from Gardco on microscope slides purchased from Technologist Choice unless otherwise noted. UV curing was performed using a modified UV curing system purchased from UV Process and Supply Inc. with a mercury bulb. Samples were irradiated with an energy density of 1956 mJ/cm^2 and an irradiance of 1383 mW/cm^2. Water contact angles (WCA) were measured using a Kruss DSA100 Drop Shape Analyzer and analyzed using Drop Shape Analysis. Thermal degradation was determined using Thermal Gravimetric Analysis (TGA) on a Q600 SDT TA instrument. A sample of 5-15 mg was placed in an aluminum cup and heated at a rate of 10° C./min from room temperature to 600° C. under nitrogen atmosphere (100 mL/min). Glass transition temperatures were determined using Differential Scanning calorimetry (DSC) on a DSC Q20 TA instrument. A sample of approximately 10 mg was placed in an aluminum Tzero pan and underwent a heat/cool/heat profile at 10° C./min under nitrogen atmosphere (100 mL/min). Data was acquired from the final heat cycle of the heat/cool/heat profile. Melting points of all HFPS were determined using a Gallenkamp Variable Heater in air. Mass spectrometry was recorded in both positive and negative ion modes using electrospray ionization (ESI) Micromass LCT spectrometer. Elemental analysis (EA) was performed by the Elemental Analysis Laboratory at the Université de Montreal. Time-of-fight Secondary Ion Mass Spectrometry (TOF-SIMS) measurements were performed using an ION-TOF (Gmbh) TOF-SIMS IV equipped with a Bi cluster liquid metal ion source. A 25 keV Bi3^+ cluster primary pulsed ion beam (10 kHz, pulse width 20 ns) was used to bombard the surface to generate secondary ions. The positive or negative secondary ions were extracted from the sample surface, mass separated and detected via a reflectron-type time-of-flight analyser. Depth profiles were obtained by repeating the following cycle: sputtering an area of 500 μm×500 μm on the sample surface with a 3 keV Cs^+ ion beam for 0.5 s followed by, with a delay of 2 s, collecting mass spectra at 128×128 pixels with the Bi3^+ ion beam over an area of 245 μm×245 μm in the center of the sputtered area.
A desired amount of photoinitiator, crosslinker, and phosphonium salt were weighed and combined in screw top vials. The mixture was then insonated at 45° C. for 20 min until the solutions were free of particulate and haze. After cooling to room temperature, the solutions were cast on glass slides and irradiated with UV light three times.

The nature of series [4]: Static water contact angle of UV-cured phosphonium films with alumina microparticles. Type of series: physicochemical. As to the method: Solution ^1H, ^19F{^1H} and ^31P{^1H} NMR spectra were recorded on a Varian INOVA 400 MHz spectrometer (^1H; 400.09 MHz, ^31P; 161.82 MHz, ^19F; 376.15 MHz). All samples for ^1H NMR spectroscopy were referenced to the residual protons in the deuterated solvents (^1H: chloroform-d 7.26; acetone-d6 2.05). ^31P{^1H} and ^19F{^1H} NMR spectroscopic chemical shifts were reported relative to external standards (85% H3PO4: 0.00 ppm and CF3C6H5: −63.9 ppm). Mass spectrometry (MS) measurements were recorded in positive and negative ion modes using an electrospray ionization (ESI) Micromass LCT spectrometer. Infrared spectra were recorded using a Bruker Tensor 27 spectrometer from Bruker Optics Inc. Samples were measured by attenuated total reflectance (ATR) infrared spectroscopy, using a zinc selenide crystal. Melting points were determined using a Gallenkamp Variable Heater in air. Scanning electron microscope images of the surfaces were obtained using a Hitachi S-4500 field emission instrument, operated at an electron beam voltage of 10 kV equipped with a Quartz Xone EDX system. AFM was performed on a Park Systems XE-100 in air with a relative humidity of ˜40%. […] Water contact angles were measured on a Kruss DSA 100 with DSA drop shape analysis software. Using an automated dispensing system, static 5 μL droplets of distilled water were deposited in different areas upon the surface. The contact angles were measured on the left and right side of each drop on at least ten droplets, resulting in a minimum of twenty angles per film. The reported contact angle is the average of all measurements.
The general procedure for film preparation and curing was as follows: the chosen phosphonium salt (95%) and 1-hydroxycyclohexylphenylketone (CPK, 5%) were dissolved in acetone. Microparticles (when included) were then added to the solution, the resulting mixture insonated in a sonic bath (Elasmonic E 60H, 100 Watts) for 10 minutes and then applied to pre-treated polyester sheets (DuPont) with a pipette. A #10 wire Meyer rod (Gardco) was used to spread the mixture evenly across the polyester substrate, producing a wet thickness of approximately 25 μm. A UV-curing conveyor (UV Process Supply) was set to allow a time exposure of ˜3 s (UV-light irradiance over this time frame was measured at 760 mJ/cm^2). The substrate with the uncured film was taped to a metal sheet and passed through the UV-conveyor.

The nature of series [5]: Solubility/miscibility tests. Type of series: physicochemical. As for the experimental part:
Approximately 5-10 mg of compound was added to a test tube followed by the addition of 1.5 mL of solvent followed by 5 seconds of gentle stirring. If dissolution was not observed immediately, the mixture was further stirred and sonicated for 30 seconds. Material was deemed soluble if the resulting solution was free of particulate and haze, determined by visual inspection. […] If solutions remained hazy, they were referred to as emulsion mixtures.

Setting [6] is: film with 50 w % Al2O3 microparticles (±3).
Setting [7] is: particle-free UV-cured film of the salt with 5 w % CPK on polyester.

Take `C=CC(=O)OCCC[P+](CCCC)(CCCC)CCCC.[Cl-]` [[4]Cl, (3-(acryloyloxy)propyl)tributylphosphonium chloride]: the “% Bacteria killed” value amounted to 18% in series [1] (15% [4]Cl film); 18% in series [1] (20% [4]Cl film); 71% in series [1] (25% [4]Cl film); 71% in series [1] (30% [4]Cl film); 75% in series [1] (37.5% [4]Cl film); 100% in series [1] (47.5% [4]Cl film). In addition, the Charge/Unit area in series [2] (15% [4]Cl film) is listed as 0 ×10^x Y^+/cm^2; in series [2] (20% [4]Cl film), 5.6 × 10^14 ×10^x Y^+/cm^2; in series [2] (25% [4]Cl film), 3.46 × 10^15 ×10^x Y^+/cm^2; in series [2] (30% [4]Cl film) it was 9.07 × 10^15 ×10^x Y^+/cm^2; in series [2] (37.5% [4]Cl film), 1.24 × 10^16 ×10^x Y^+/cm^2; in series [2] (47.5% [4]Cl film), 2.54 × 10^16 ×10^x Y^+/cm^2.
`C=Cc1ccc(C[P+](CCC(F)(F)C(F)(F)C(F)(F)C(F)(F)F)(CCC(F)(F)C(F)(F)C(F)(F)C(F)(F)F)CCC(F)(F)C(F)(F)C(F)(F)C(F)(F)F)cc1.O=S(=O)([N-]S(=O)(=O)C(F)(F)F)C(F)(F)F` [[2]NTf2]: the Water contact angle turned out to be 80 ° in series [3] (0.05 wt % in HDDA); 89 ° in series [3] (0.1 wt % in HDDA); 91 ° in series [3] (0.5 wt % in HDDA); 92 ° in series [3] (1 wt % in HDDA); 92 ° in series [3] (1.5 wt % in HDDA). Besides, the values for the WCA in series [4] (setting [6]) and in series [4] (setting [7]) were 141 ° and “≈ 90 °”, respectively.
`C=Cc1ccc(C[P+](CCC(F)(F)C(F)(F)C(F)(F)C(F)(F)C(F)(F)C(F)(F)F)(CCC(F)(F)C(F)(F)C(F)(F)C(F)(F)C(F)(F)C(F)(F)F)CC(C)CC(C)(C)C)cc1.[Cl-]` (stereo not drawn) [[3]Cl]: the “Solubility (in words)” value in series [5] (chloroform) and in series [5] (dichloromethane) was “soluble” each time.
With `C=Cc1ccc(C[P+](CCC(F)(F)C(F)(F)C(F)(F)C(F)(F)F)(CCC(F)(F)C(F)(F)C(F)(F)C(F)(F)F)CC(C)CC(C)(C)C)cc1.O=S(=O)([N-]S(=O)(=O)C(F)(F)F)C(F)(F)F` (stereo not drawn) [[1]NTf2], the “Solubility (in words)” value in series [5] (chloroform) and in series [5] (dichloromethane) was “soluble” throughout. The Water contact angle in series [3] (0.1 wt % in HDDA) was 82 °; in series [3] (0.5 wt % in HDDA), 84 °; in series [3] (1 wt % in HDDA), 87 °; in series [3] (1.5 wt % in HDDA), 87 °.
As to `C=Cc1ccc(C[P+](CCC(F)(F)C(F)(F)C(F)(F)C(F)(F)F)(CCC(F)(F)C(F)(F)C(F)(F)C(F)(F)F)CC(C)CC(C)(C)C)cc1.[Cl-]` (stereo not drawn) [[1]Cl], the figures for the WCA in series [4] (setting [6]) and in series [4] (setting [7]) were 88 ° and “≈ 80 °; also recorded: ≈ 90 °”, respectively.
On to `C=Cc1ccc(C[P+](CCC(F)(F)C(F)(F)C(F)(F)C(F)(F)F)(CCC(F)(F)C(F)(F)C(F)(F)C(F)(F)F)CCC(F)(F)C(F)(F)C(F)(F)C(F)(F)F)cc1.[Cl-]` [[2]Cl], for which, in series [4] (setting [7]), the WCA result was “≈ 80 °”.
